Experimental data taken from PubChem BioAssay (NCI).
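48-hour exposure; five concentrations; linearly interpolated endpoints. At the TGI there is no net growth.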

Experiments:
Assay in all cases: NCI anticancer screen, dose series, 48 h
SK-MEL-28 melanoma = test system: SK-MEL-28 melanoma
A549 NSCLC = test system: A549 NSCLC
SK-MEL-5 melanoma = test system: SK-MEL-5 melanoma
EKVX NSCLC = test system: EKVX NSCLC
MALME-3M melanoma = test system: MALME-3M melanoma
SN12C renal = test system: SN12C renal
SR leukemia = test system: SR leukemia
OVCAR-4 ovarian = test system: OVCAR-4 ovarian
M14 melanoma = test system: M14 melanoma
SNB-19 CNS = test system: SNB-19 CNS
NCI-H522 lung = test system: NCI-H522 lung
SF-268 CNS = test system: SF-268 CNS
CCRF-CEM leukemia = test system: CCRF-CEM leukemia
UACC-62 melanoma = test system: UACC-62 melanoma
HL-60(TB) leukemia = test system: HL-60(TB) leukemia
TK-10 renal = test system: TK-10 renal
COLO 205 colon = test system: COLO 205 colon
LOX IMVI melanoma = test system: LOX IMVI melanoma
NCI/ADR-RES ovarian = test system: NCI/ADR-RES ovarian
T-47D breast = test system: T-47D breast

SMILES	TGI (SK-MEL-28 melanoma)	TGI (A549 NSCLC)	TGI (SK-MEL-5 melanoma)	TGI (EKVX NSCLC)	TGI (MALME-3M melanoma)	TGI (SN12C renal)	TGI (SR leukemia)	TGI (OVCAR-4 ovarian)	TGI (M14 melanoma)	TGI (SNB-19 CNS)	TGI (NCI-H522 lung)	TGI (SF-268 CNS)	TGI (CCRF-CEM leukemia)	TGI (UACC-62 melanoma)	TGI (HL-60(TB) leukemia)	TGI (TK-10 renal)	TGI (COLO 205 colon)	TGI (LOX IMVI melanoma)	TGI (NCI/ADR-RES ovarian)	TGI (T-47D breast)
O=S1(=O)OCCOS(=O)(=O)C1I	> 100 µM	> 100 µM	> 100 µM	> 100 µM	> 100 µM	> 100 µM	> 100 µM	> 100 µM	> 100 µM	> 100 µM	> 100 µM	> 100 µM	> 100 µM	> 100 µM	> 100 µM	> 100 µM	> 100 µM	–	–	–
CC1=NN(c2ccccc2)C(=O)C1=C1SCCS1	> 100 µM	> 100 µM	> 100 µM	> 100 µM	> 100 µM	> 100 µM	> 54.4 µM	> 100 µM	> 100 µM	> 100 µM	97.1 µM	> 100 µM	> 65.5 µM	> 100 µM	> 58.9 µM	> 100 µM	> 56.8 µM	> 63.4 µM	–	–
COc1ccc(N2C(=O)C3c4[nH]c5ccccc5c4C4CCCCCCCCCCC4C3C2=O)cc1 (stereo unspecified)	29.7 µM	23.2 µM	> 59.6 µM	> 52.8 µM	> 47.2 µM	19.9 µM	> 20.3 µM	65.8 µM	27.1 µM	40.8 µM	> 49.1 µM	> 30.5 µM	> 43.7 µM	> 52.6 µM	68.2 µM	> 73.2 µM	> 40.5 µM	> 46.6 µM	–	–
O=c1cc(-c2ccccc2)[nH]c2cc(F)c(F)cc12	> 100 µM	> 31.5 µM	18.7 µM	> 100 µM	> 100 µM	> 100 µM	> 100 µM	> 100 µM	> 100 µM	> 50.6 µM	10.8 µM	> 20.8 µM	> 100 µM	> 50.1 µM	3.14 µM	> 100 µM	34.7 µM	> 100 µM	> 19.6 µM	–
CCOC(=O)/C(=C\c1ccc(O)c(OC)c1)C(=O)c1ccccc1	27.7 µM	51.3 µM	29.8 µM	> 53.3 µM	> 49 µM	33.5 µM	62.7 µM	> 40.3 µM	> 48 µM	> 45.8 µM	21.9 µM	28.1 µM	27.4 µM	28.6 µM	52.4 µM	> 57.5 µM	> 69.1 µM	21.7 µM	–	–
C=CC(Cl)(CBr)CCC(Br)=C(C)C (stereo unspecified)	40.7 µM	> 100 µM	33.7 µM	> 100 µM	34.5 µM	33 µM	> 100 µM	46.6 µM	> 100 µM	> 100 µM	36.8 µM	43.3 µM	> 100 µM	36 µM	–	58.8 µM	33.4 µM	37.8 µM	91.2 µM	–
CCOC(=O)Cc1nnc2c(-c3ccccc3)nc3ccccc3n12	> 100 µM	> 100 µM	> 100 µM	79.8 µM	> 100 µM	> 100 µM	> 100 µM	> 100 µM	> 100 µM	62.1 µM	–	39.7 µM	> 100 µM	> 100 µM	> 100 µM	> 100 µM	> 100 µM	> 100 µM	> 100 µM	–
C/C(=N\NS(=O)(=O)c1ccc(C)cc1)C(CN1CCOCC1)C(c1ccccc1)c1c(O)c2ccccc2oc1=O (stereo unspecified)	–	> 100 µM	> 100 µM	> 100 µM	> 100 µM	> 100 µM	56.2 µM	> 100 µM	> 100 µM	> 100 µM	> 100 µM	> 100 µM	> 100 µM	> 100 µM	76.1 µM	> 100 µM	> 100 µM	> 100 µM	–	–
CCCN(CCCCC(NC(C)=O)C(=O)NCc1ccccc1)C(=O)N(C)N=O (stereo unspecified)	> 100 µM	> 100 µM	> 100 µM	> 100 µM	> 100 µM	> 100 µM	–	> 100 µM	> 100 µM	> 100 µM	> 100 µM	> 100 µM	> 100 µM	> 100 µM	–	> 100 µM	> 100 µM	> 100 µM	–	–
Cc1nc2c(n1CCO)C(=O)c1ccccc1C2=O	> 100 µM	> 100 µM	23.4 µM	> 100 µM	24.2 µM	> 100 µM	> 100 µM	99 µM	52.3 µM	> 100 µM	27.6 µM	> 100 µM	> 100 µM	30.9 µM	54.2 µM	> 100 µM	41.9 µM	> 100 µM	–	–
C=CCCC(OCOCCOC)c1cc(C)c(O[Si](C)(C)C(C)(C)C)c(C)c1 (stereo unspecified)	64.7 µM	38.5 µM	24.3 µM	63.5 µM	41.4 µM	32.2 µM	–	–	> 100 µM	20.7 µM	25.4 µM	34.1 µM	30.6 µM	38.1 µM	19.5 µM	41.2 µM	32.9 µM	27.6 µM	–	–
C/C(CC(=O)Nc1ccc(Cl)c(Cl)c1)=N/NC(=O)C[n+]1ccccc1	> 100 µM	> 100 µM	> 100 µM	> 100 µM	> 100 µM	> 100 µM	51.2 µM	> 100 µM	> 100 µM	> 100 µM	> 100 µM	> 100 µM	> 100 µM	> 100 µM	> 100 µM	> 100 µM	> 100 µM	37.1 µM	–	–
COc1cccc2c1CCc1ccccc1CC2=O	> 100 µM	> 100 µM	> 100 µM	> 100 µM	> 100 µM	> 100 µM	> 100 µM	> 100 µM	> 100 µM	> 100 µM	> 100 µM	> 100 µM	> 100 µM	> 100 µM	> 100 µM	> 100 µM	> 100 µM	> 100 µM	–	–
COc1c(Cl)c2c(c(OC)c1OC)-c1ccc(OC)c(=O)c(Cl)c1C(NC(C)=O)CC2 (stereo unspecified)	> 100 µM	> 100 µM	–	> 100 µM	> 100 µM	> 36.4 µM	> 100 µM	> 100 µM	4.61 µM	> 100 µM	0.468 µM	3.57 µM	> 33.8 µM	44.6 µM	2.77 µM	> 100 µM	0.647 µM	5.87 µM	–	–
COc1ccc(N2C(=O)C3c4[nH]c5ccc(OC)cc5c4C4CCC(C(C)(C)C)CC4C3C2=O)cc1 (stereo unspecified)	> 100 µM	> 100 µM	> 100 µM	92.3 µM	58 µM	> 100 µM	> 100 µM	43.6 µM	> 100 µM	> 100 µM	89.3 µM	> 100 µM	> 100 µM	> 100 µM	> 100 µM	> 100 µM	> 100 µM	> 100 µM	–	–
COC(=O)CCCN(C)c1n[nH]c(N)n1	> 100 µM	> 100 µM	> 100 µM	> 100 µM	–	> 100 µM	> 100 µM	> 100 µM	> 100 µM	> 100 µM	–	> 100 µM	> 100 µM	> 100 µM	> 100 µM	> 100 µM	> 100 µM	> 100 µM	–	–
C[C@H]1O[C@@H](c2c(O)ccc3ccccc23)C[C@@H](N(C)C)C1O (stereo partly specified)	> 100 µM	> 100 µM	> 100 µM	> 100 µM	> 100 µM	> 100 µM	–	> 100 µM	> 100 µM	> 100 µM	> 100 µM	> 100 µM	> 100 µM	> 100 µM	> 100 µM	> 100 µM	> 100 µM	> 100 µM	> 100 µM	–
COc1ccc(C[C@@H]2Cc3cc(OC)c(OC)cc3CN2C)cc1	> 100 µM	> 100 µM	> 100 µM	> 100 µM	> 100 µM	> 100 µM	–	> 100 µM	> 100 µM	> 100 µM	> 100 µM	> 100 µM	> 100 µM	–	–	> 100 µM	–	–	–	–
CC(=O)c1cccc(NC(=O)/C(=N\NC(C)(C)C)c2c(O)c3ccccc3oc2=O)c1	> 100 µM	> 100 µM	> 100 µM	> 100 µM	> 100 µM	> 100 µM	> 100 µM	> 100 µM	> 100 µM	> 100 µM	> 100 µM	> 100 µM	> 100 µM	> 100 µM	> 100 µM	> 100 µM	> 100 µM	> 100 µM	–	–
C/C=C/c1c(O)c(=O)c2c(OC)cc(OC)c3c4c(OC)cc(OC)c5c(=O)c(O)c(/C=C/C)c(c1c23)c54	36.6 µM	> 100 µM	24.3 µM	40.5 µM	19.6 µM	41.8 µM	> 100 µM	29.5 µM	> 100 µM	17.2 µM	16.9 µM	24.6 µM	> 100 µM	30.6 µM	–	–	19.1 µM	57.4 µM	34 µM	–
CC(=O)O[C@H]1C(=O)[C@@]2(C)[C@H]([C@H](OC(=O)c3ccccc3)[C@]3(O)C[C@H](OC(=O)[C@H](OC(=O)OCCC(O)CO)[C@@H](NC(=O)c4ccccc4)c4ccccc4)C(C)=C1C3(C)C)[C@]1(OC(C)=O)CO[C@@H]1C[C@@H]2O (stereo partly specified)	–	> 100 µM	0.613 µM	> 100 µM	–	33.6 µM	–	> 100 µM	–	> 100 µM	< 0.01 µM	> 56.9 µM	12.2 µM	20.1 µM	< 0.01 µM	> 44.6 µM	–	22 µM	> 43.4 µM	–
N#Cc1ccc(Oc2nc3ccccc3nc2-c2ccccc2)cc1	> 100 µM	–	> 100 µM	> 100 µM	> 100 µM	> 100 µM	–	> 100 µM	–	> 100 µM	> 100 µM	> 100 µM	> 100 µM	> 100 µM	> 100 µM	> 100 µM	> 100 µM	> 100 µM	–	–
COc1ccc2c(c1)c(=O)c1ccccc1n2/C=C/C(=O)O	> 100 µM	> 100 µM	> 100 µM	> 100 µM	> 100 µM	> 100 µM	> 57.4 µM	> 100 µM	> 100 µM	> 100 µM	> 100 µM	> 100 µM	> 67.8 µM	> 100 µM	> 66.6 µM	> 100 µM	> 100 µM	> 65.6 µM	–	–
COC(=O)c1ccc(OCc2ccc3nc(OC)c(OC)nc3c2)cc1	> 100 µM	> 100 µM	> 100 µM	> 100 µM	> 100 µM	> 100 µM	> 100 µM	> 100 µM	> 100 µM	> 100 µM	> 100 µM	> 100 µM	> 100 µM	–	> 100 µM	> 100 µM	> 100 µM	> 100 µM	–	–
C=CCCCC1CCCNC1=O (stereo unspecified)	> 100 µM	> 100 µM	> 100 µM	> 100 µM	–	> 100 µM	–	> 100 µM	> 100 µM	> 100 µM	> 100 µM	> 100 µM	–	> 100 µM	–	> 100 µM	–	–	–	> 100 µM
CN(C)c1ccc(-c2cc(=O)c3cc4c(cc3[nH]2)OCO4)cc1	> 100 µM	> 100 µM	> 100 µM	> 100 µM	> 100 µM	> 100 µM	> 100 µM	> 100 µM	> 100 µM	> 100 µM	–	> 100 µM	> 100 µM	> 100 µM	> 100 µM	> 100 µM	> 100 µM	> 100 µM	–	–
OC12c3ccccc3C1(N1CCOCC1)CCCCC21OCCCO1 (stereo unspecified)	> 100 µM	> 100 µM	> 100 µM	–	> 100 µM	> 100 µM	–	> 100 µM	> 100 µM	> 100 µM	> 100 µM	> 100 µM	> 100 µM	> 100 µM	> 100 µM	> 100 µM	> 100 µM	> 100 µM	–	–
